Values of other authors, collected in paper PMC3009454 (Bioconjugate chemistry, 2009).

Test system: primary melanoma and pulmonary melanoma metastases
Conditions: small animal SPECT/CT

^111In-1,4,7,10-tetraazacyclododecane-1,4,7,10-tetraacetic acid-c[Lys-Nle-Glu-His-DPhe-Arg-Trp-Gly-Arg-Pro-Val-Asp] (sidechain bridge or staple) [^111In-DOTA-GlyGlu-CycMSH]
SPECT/CT visualization of primary melanoma and pulmonary melanoma metastases: clearly visualized
